Assay results taken from article PMC10692721, “Drug discovery for heart failure targeting myosin-binding protein C” (The Journal of Biological Chemistry, 2023).
*1 amine or outer side, *2 acyl side, *3 side chain or, on linkers, in order; H or OH if unused. Where a SMILES comes first, the peptide text is derived from it. Bridges are numbered along the chain shown (N, C = ends). [ ]: non-standard residue; d: D form. The star is where a group is joined. pTerphenylCO(4''-OnC5H11) = CCCCCOc1ccc(-c2ccc(-c3ccc(C(=O)*)cc3)cc2)cc1; Orn(4R-OH,5R-OH) = O=C([C@H](C[C@@H](O)[C@@H](O)N[*:3])N[*:1])[*:2]; hTyr(3S-OH,4S-OH) = N[C@H](C(=O)O)[C@H](O)[C@@H](O)c1ccc(O)cc1; Pro(3S-OH,4S-Me) = C[C@H]1CN[C@H](C(=O)O)[C@H]1O; Hyp = O=C(O)[C@@H]1C[C@@H](O)CN1

Key:
[1] = test system: FMAL-actin plus TMR-cC0-C2; experiment: Selleck library HTS, 473 nm excitation (FLT of FMAL-actin with TMR-cC0-C2, FLT-FRET); type: binding, human; settings: for 473-nm Δτ, Repeat 1 / 473-nm Δτ, Repeat 2: initial screen, 30 μM compound; for 473-nm z-score (based on avg Δτ): robust z-score, hit threshold ±4, 30 μM compound
Procedure: (§1) Fluorescence lifetime (FLT) measurements were acquired using a high-throughput FLT plate reader (Fluorescence Innovations, Inc) ([14], [27]), provided by Photonic Pharma LLC. […] The observed waveforms were analyzed as described previously ([15], [28]).
(§2) In total, 50 nl of each solution was dispensed in DMSO using an automated Echo 550 acoustic liquid dispenser (Labcyte). Compounds were formatted into the assay plates, at a final concentration of 30 μM, with the first two and second to last columns loaded with DMSO only (compound-free controls). In the final column, 30 μM of suramin was loaded as a positive control (tool compound). These assay plates were then heat-sealed using a PlateLoc Thermal Microplate Sealer (Agilent Technologies) and stored at −20 °C. Before screening, compound plates were equilibrated to room temperature (∼25 °C). […] Plates were incubated at room temperature for 60 min before recording the data with the fluorescence lifetime plate reader.
After fitting the waveforms with a single exponential decay to quantify donor FLT, the change in FLT (Δτ) was computed by performing a moving median subtraction in the order the plate was scanned with a window size of half a plate row […]. The reasons for this are twofold. Firstly, plate gradients are often observed due to the heating of the digitizer during acquisition.
To account for the necessity to correct for plate gradients in the computation of E, the median τDMSO prior to the application of the moving median correction was added to each well’s Δτ value to recover a rescaled value of τ.

TMR-cC0-C2 = experiment: Selleck library HTS, 532 nm excitation (FLT of TMR-cC0-C2 in presence of FMAL-actin); type: binding, human; settings: for effect on FLT of TMR-cC0-C2 in the initial screen (in words): both replicates, actin present; for 532-nm Δτ, Repeat 1 / 532-nm Δτ, Repeat 2: initial screen, 30 μM compound; for 532-nm z-score (based on avg Δτ): robust z-score, hit threshold ±4, 30 μM compound
Procedure: as §1, §2
Hits that exceeded the z-score hit criteria in the donor-only screen were excluded from consideration. To remove compounds with confounding fluorescence properties, a similarity index (SI, specifically the cosine distance, Equation 5) was computed using data from the SUPR instrument by comparing a region (500–540 nm) of the donor-only spectrum (I^(a)) for each well to that of the plate-wide average DMSO spectrum (I^(b)) in the same wavelength band ([29]). Compounds that exceeded an SI robust z-score of 4 were deemed likely fluorescent compounds and removed from consideration.(5) SI=1−∑Ii(a).Ii(b)/∑Ii(a).Ii(a)∑Ii(b).Ii(b)

[2] = test system: TMR-cC0-C2 (C0-C2 fragment of human cMyBP-C); experiment: FLT-TMR concentration-response assay (FLT of TMR on cC0-C2, no actin); type: binding; settings: for effect on FLT of TMR-cC0-C2 (in words): concentration-response, no actin; for cC0-C2/cC0-C2#P (ratio of FLT changes) / cC0-C2 FLT change (% change from DMSO, FLT of TMR-MyBP-C): 60 μM compound
Procedure: (§3) Compounds identified as initial hits were further examined to determine the concentration–response curves for seven conditions ([1]): FMAL-actin alone identified actin-binding compounds that alter the FLT of FMAL-actin ([2]).
as §1
(§4) The primary hits were dissolved in DMSO to make a 10 mM stock solution, which was serially diluted in 96-well mother plates. Hits were screened at eight concentrations (0.5–100 μM). […] Compounds (1 μl) were transferred from the mother plates into 384-well plates using a Mosquito HV liquid handler (TTP Labtech Ltd, Hertfordshire, UK). The same procedure of dispensing as for the pilot screening was applied in the concentration-response assays. Concentration dependence of the FLT-FRET (E/EDMSO) or FLT-TMR (Δτ) change data was fit to a Hill equation only under certain conditions to help guide the eye (Fig. 4).

[3] = test system: PKA-phosphorylated TMR-cC0-C2 (cC0-C2#P); experiment: FLT-TMR concentration-response assay, PKA-phosphorylated cC0-C2; type: binding, human; settings: 60 μM compound
Procedure: as §3, §1, §4

[4] = test system: TMR-fC1-C2 (C1-C2 of fast skeletal MyBP-C); experiment: FLT-TMR concentration-response assay, fC1-C2; type: binding; settings: 60 μM compound
Procedure: as §3, §1, §4

[5] = test system: FMAL-actin/TMR-cC0-C2 interaction; experiment: FLT-FRET concentration-response assay, FMAL-actin plus TMR-cC0-C2; type: binding, human; settings: unphosphorylated cC0-C2
Procedure: as §3, §1, §4

Row | Molecule | 473-nm Δτ, Repeat 1 [1] | 473-nm Δτ, Repeat 2 [1] | 473-nm z-score (based on avg Δτ) [1] | effect on FLT of TMR-cC0-C2 in the initial screen (in words) (TMR-cC0-C2) | 532-nm Δτ, Repeat 1 (TMR-cC0-C2) | 532-nm Δτ, Repeat 2 (TMR-cC0-C2) | 532-nm z-score (based on avg Δτ) (TMR-cC0-C2) | effect on FLT of TMR-cC0-C2 (in words) [2] | cC0-C2#P FLT change (% change from DMSO, FLT of TMR-MyBP-C) [3] | cC0-C2/fC1-C2 (ratio of FLT changes) [4] | fC1-C2 FLT change (% change from DMSO, FLT of TMR-MyBP-C) [4] | cC0-C2/cC0-C2#P (ratio of FLT changes) [2] | cC0-C2 FLT change (% change from DMSO, FLT of TMR-MyBP-C) [2] | effect on FLT-FRET / binding between FMAL-actin and TMR-cC0-C2 (in words) [5]
1 | Oc1cccc2cccnc12 [8-Hydroxyquinoline] | -0.025 ns | -0.188 ns | -5.91 | strongly reduced | -0.167 ns | -0.285 ns | -13.76 | did not |  |  |  |  |  | 
2 | CCCCCOc1ccc(-c2ccc(-c3ccc(C(=O)N[C@H]4C[C@@H](O)[C@@H](O)NC(=O)[C@@H]5[C@@H](O)[C@@H](C)CN5C(=O)[C@H]([C@@H](C)O)NC(=O)[C@H]([C@H](O)[C@@H](O)c5ccc(O)cc5)NC(=O)[C@@H]5C[C@@H](O)CN5C(=O)[C@H]([C@@H](C)O)NC4=O)cc3)cc2)cc1 [Anidulafungin] ({pTerphenylCO(4''-OnC5H11)}-[Orn(4R-OH,5R-OH)]T[Hyp][hTyr(3S-OH,4S-OH)]T[Pro(3S-OH,4S-Me)]; lactam 1-C) | 0.014 ns | 0.008 ns | 0.67 |  | 0.403 ns | 0.441 ns | 25.80 |  | 43.3% | 0.6 | 53.0% | 0.7 | 32.1% | 
3 | COc1nc2ccc(Br)cc2cc1[C@@H](c1ccccc1)[C@@](O)(CCN(C)C)c1cccc2ccccc12.O=C(O)/C=C/C(=O)O [Bedaquiline fumarate] | -0.324 ns | -0.412 ns | -20.57 |  | -0.009 ns | -0.105 ns | -3.45 |  | −6.5% | 0.7 | 6.7% | 0.7 | −4.5% | 
4 | CCCCNc1ccc(C(=O)OCCOCCOCCOCCOCCOCCOCCOCCOCCOC)cc1 [Benzonatate] | 0.108 ns | -0.001 ns | 3.05 | strongly reduced | -0.101 ns | -0.124 ns | -6.82 | did not |  |  |  |  |  | 
5 | CCN(CC)CCCC(C)Nc1ccnc2cc(Cl)ccc12 (stereo not drawn) [Chloroquine phosphate] | -0.042 ns | -0.069 ns | -3.07 |  | 0.311 ns | 0.320 ns | 19.30 |  |  |  | 1.9% |  | 2.5% | 
6 | CCCCCCCCCCCCCCCC(=O)O[C@@H]1[C@@H](O)[C@@H](O)[C@@H]([C@H](NC(=O)[C@@H]2C[C@@H](CCC)CN2C)[C@H](C)Cl)O[C@@H]1SC.Cl [Clindamycin palmitate HCl] | -0.304 ns | -0.358 ns | -18.47 |  | -0.075 ns | -0.094 ns | -5.12 |  |  |  |  |  | −12.7% | 
7 | Cc1ccc(Nc2c(F)cccc2Cl)c(CC(=O)O)c1 [Lumiracoxib] | 0.093 ns | 0.064 ns | 4.45 |  | -0.054 ns | -0.036 ns | -2.72 |  |  |  |  |  |  | decrease
8 | CONC(=O)Nc1ccc(-c2sc3c(c2CN(C)C)c(=O)n(-c2ccc(OC)nn2)c(=O)n3Cc2c(F)cccc2F)cc1 [Relugolix] | 0.366 ns | -0.004 ns | 10.15 |  | -0.169 ns | -0.015 ns | -5.58 |  |  |  |  |  |  | 
9 | C[n+]1cc2c3c(ccc2c2ccc4cc5c(cc4c21)OCO5)OCO3 [Sanguinarine chloride] | -0.105 ns | -0.086 ns | -5.31 |  | -0.160 ns | -0.020 ns | -5.46 |  |  |  |  |  |  | 
10 | CCOC(=O)[C@@H](N)Cc1ccc(-c2cc(O[C@H](c3ccc(Cl)cc3-n3ccc(C)n3)C(F)(F)F)nc(N)n2)cc1 [Telotristat etiprate (LX 1606 Hippurate), Telotristat etiprate] | -0.136 ns | -0.122 ns | -7.19 |  | 0.064 ns | 0.093 ns | 4.83 |  |  |  |  |  |  | 
11 | COc1ccc(CN(CCN(C)C)c2ncccn2)cc1 [Thonzylamine] | 0.012 ns | -0.449 ns | -12.17 |  | -0.034 ns | -0.382 ns | -12.66 |  |  |  |  |  |  | 
12 | Heparin sodium | 0.440 ns | 0.363 ns | 22.49 |  | -0.052 ns | -0.051 ns | -3.09 |  |  |  |  |  |  | 
